These results are taken from US9434743B2, “Indazole derivatives” (TAKEDA PHARMACEUTICAL COMPANY LIMITED, priority 2012, dated 2016).

Assay [1] addresses T1, human MetAP2 enzyme (Homo sapiens, UniProt P50579). The assay is described as follows: MetAP2 enzyme assay, enzyme complexed with cobalt ions. Particulars: MetAP2 Co pIC50, MetAP2 enzyme complexed with cobalt ions; Met-AMC substrate at Km.
For assay [2], the target named is T1, human MetAP2 enzyme. The assay is described as follows: MetAP2 enzyme assay, enzyme complexed with manganese ions. Particulars: MetAP2 Mn pIC50, MetAP2 enzyme complexed with manganese ions; Met-AMC substrate at Km.
Description: DNA encoding the full-length sequence of human MetAP2 enzyme is amplified by PCR and cloned into a pFastBac expression vector (Invitrogen). Recombinant baculovirus incorporating the MetAP2 construct is generated by transposition using the Bac-to-Bac system (Invitrogen). The expression of recombinant protein is carried out by infection of Spodoptera frugiperda Sf9 cells (Invitrogen) in 5 L Wave Bioreactors (Wave Biotech). Recombinant protein is isolated from cellular extracts by binding to an SP Hitrap Fast Flow or SP Sepharose (Sigma) column, and the protein is eluted using a NaCl gradient. Partially purified extracts of MetAP2 are further purified by an AKTA FPLC over a Superdex-200 column (GE). The purity of MetAP2 protein is determined on denaturing SDS-PAGE gel.
The results for each well are expressed as percent inhibition and calculated using the equation:

Usually IC50 stands for the concentration at which inhibition is half-maximal. Low values mean greater potency in that assay, high ones weaker potency in that assay.

T1 sequence (P50579 whole entry): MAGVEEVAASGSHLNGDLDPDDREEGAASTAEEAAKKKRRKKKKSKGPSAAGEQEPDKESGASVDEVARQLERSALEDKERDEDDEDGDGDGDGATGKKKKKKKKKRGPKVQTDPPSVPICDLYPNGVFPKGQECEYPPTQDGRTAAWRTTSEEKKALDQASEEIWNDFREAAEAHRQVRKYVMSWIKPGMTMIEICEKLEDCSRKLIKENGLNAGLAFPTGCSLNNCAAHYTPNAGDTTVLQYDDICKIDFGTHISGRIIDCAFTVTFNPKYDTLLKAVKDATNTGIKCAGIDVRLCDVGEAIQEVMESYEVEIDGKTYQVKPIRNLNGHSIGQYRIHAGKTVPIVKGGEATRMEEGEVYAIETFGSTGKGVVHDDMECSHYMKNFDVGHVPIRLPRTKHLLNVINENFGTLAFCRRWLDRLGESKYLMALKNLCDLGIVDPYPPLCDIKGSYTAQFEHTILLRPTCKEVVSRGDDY

For `Cc1nnc(-c2ccc(-c3cc(C(F)(F)F)cc4[nH]ncc34)cc2)o1` [Example 120, 2-methyl-5-(4-(6-(trifluoromethyl)-1H-indazol-4-yl)phenyl)-1,3,4-oxadiazole], the figures for the IC50 in assay [1] and in assay [2] were 63.1 nM and 15.8 nM, respectively.

With `FC(F)(F)c1cc(-c2ccc(OCCN3CCOCC3)cc2)c2cn[nH]c2c1` [Example 281, 4-(2-(4-(6-(trifluoromethyl)-1H-indazol-4-yl)phenoxy)ethyl)morpholine], the values for the IC50 in assay [1] and in assay [2] were 63.1 nM and 7.94 nM, respectively.

As to `Cc1ccc(C(=O)NCCO)cc1-c1cc(C(F)(F)F)cc2[nH]ncc12` [Example 368, N-(2-hydroxyethyl)-4-methyl-3-(6-(trifluoromethyl)-1H-indazol-4-yl)benzamide], the IC50 is 31.6 nM in assay [1] and 12.6 nM in assay [2].

In the case of `FC(F)(F)c1cc(-c2cccc3[nH]ccc23)c2cn[nH]c2c1` [Example 81, 4-(1H-indol-4-yl)-6-(trifluoromethyl)-1H-indazole], the results for the IC50 in assay [1] and in assay [2] were 39.8 nM and 15.8 nM, respectively.

In the case of `Cc1nn(CC(=O)NC(C)C)c(C)c1-c1cc(C(F)(F)F)cc2[nH]ncc12` [Example 352, 2-(3,5-dimethyl-4-(6-(trifluoromethyl)-1H-indazol-4-yl)-1H-pyrazol-1-yl)-N-isopropylacetamide], the figures for the IC50 in assay [1] and in assay [2] were 39.8 nM and 20 nM, respectively.

On to `Cc1nn(CC(=O)N2CCOCC2)cc1-c1cc(C(F)(F)F)cc2[nH]ncc12` [Example 277, 2-(3-methyl-4-(6-(trifluoromethyl)-1H-indazol-4-yl)-1H-pyrazol-1-yl)-1-morpholinoethanone], for which the IC50 in assay [1] was 63.1 nM; in assay [2], 5.01 nM.

Turning to `Cc1cc(C(=O)N2CC(O)C2)ccc1-c1cc(C(F)(F)F)cc2[nH]ncc12` [Example 361, (3-hydroxyazetidin-1-yl)(3-methyl-4-(6-(trifluoromethyl)-1H-indazol-4-yl)phenyl)methanone], the IC50 in assay [1] was 15.8 nM; in assay [2] it was 10 nM.

Take `Cc1nc(N)ccc1-c1cc(C(F)(F)F)cc2[nH]ncc12` [Example 255, 6-methyl-5-(6-(trifluoromethyl)-1H-indazol-4-yl)pyridin-2-amine]: the IC50 in assay [1] was 25.1 nM; in assay [2] it was 7.94 nM.

Take `COc1ccc(C(=O)NCCO)cc1-c1cc(C(F)(F)F)cc2[nH]ncc12` [Example 268, N-(2-hydroxyethyl)-4-methoxy-3-(6-(trifluoromethyl)-1H-indazol-4-yl)benzamide]: the IC50 in assay [1] was 39.8 nM; in assay [2], 15.8 nM.

`COc1ccn2c(-c3cc(C(F)(F)F)cc4[nH]ncc34)cnc2c1C#N` [Example 160, 7-methoxy-3-(6-(trifluoromethyl)-1H-indazol-4-yl)imidazo[1,2-a]pyridine-8-carbonitrile]: the IC50 in assay [1] is 79.4 nM; in assay [2] it was 39.8 nM.

Consider `COc1ccc(-c2cc(C(F)(F)F)cc3[nH]ncc23)c(C(N)=O)n1` [Example 201, 6-methoxy-3-(6-(trifluoromethyl)-1H-indazol-4-yl)picolinamide], for which the IC50 in assay [1] was 794 nM; in assay [2], 20 nM.

Consider `CN1CCN(C(=O)c2cncc(-c3cc(C(F)(F)F)cc4[nH]ncc34)c2)CC1` [Example 287, (4-methylpiperazin-1-yl)(5-(6-(trifluoromethyl)-1H-indazol-4-yl)pyridin-3-yl)methanone], for which the IC50 in assay [1] was 63.1 nM; in assay [2], 3.98 nM.

Turning to `Nc1ccc(-c2cc(C(F)(F)F)cc3[nH]ncc23)cn1` [Example 16, 5-(6-(trifluoromethyl)-1H-indazol-4-yl)pyridin-2-amine], the IC50 in assay [1] was 31.6 nM; in assay [2] it was 5.01 nM.

Consider `NC(=O)c1ccc(-c2cc(C(F)(F)F)cc3[nH]ncc23)cc1` [Example 7, 4-(6-(trifluoromethyl)-1H-indazol-4-yl)benzamide], for which the figures for the IC50 in assay [1] and in assay [2] were 25.1 nM and 5.01 nM, respectively.

In the case of `Cc1nc(C(N)=O)ccc1-c1cc(C(F)(F)F)cc2[nH]ncc12` [Example 379, 6-methyl-5-(6-(trifluoromethyl)-1H-indazol-4-yl)picolinamide], the values for the 50% inhibitory concentration (IC50) in assay [1] and in assay [2] were 39.8 nM and 6.31 nM, respectively.

`Cc1ccc(S(=O)(=O)N(C)C)cc1-c1cc(C(F)(F)F)cc2[nH]ncc12` [Example 127, N,N,4-trimethyl-3-(6-(trifluoromethyl)-1H-indazol-4-yl)benzenesulfonamide]: the IC50 in assay [1] was 15.8 nM; in assay [2], 12.6 nM.

For `NC(=O)c1cc(-c2cc(C(F)(F)F)cc3[nH]ncc23)ccc1Cl` [Example 63, 2-chloro-5-(6-(trifluoromethyl)-1H-indazol-4-yl)benzamide], the IC50 in assay [1] was 63.1 nM; in assay [2], 15.8 nM.

`Cn1cc(C(=O)NCC#N)cc(-c2cc(C(F)(F)F)cc3[nH]ncc23)c1=O` [Example 354, N-(cyanomethyl)-1-methyl-6-oxo-5-(6-(trifluoromethyl)-1H-indazol-4-yl)-1,6-dihydropyridine-3-carboxamide]: the IC50 was 316 nM in assay [1] and 6.31 nM in assay [2].

On to `FC(F)(F)c1cc(-c2cccc3cccnc23)c2cn[nH]c2c1` [Example 31, 8-(6-(trifluoromethyl)-1H-indazol-4-yl)quinoline], for which the results for the IC50 in assay [1] and in assay [2] were 200 nM and 15.8 nM, respectively.

Consider `COc1ccc(C(N)=O)cc1-c1cc(C(F)(F)F)cc2[nH]ncc12` [Example 273, 4-methoxy-3-(6-(trifluoromethyl)-1H-indazol-4-yl)benzamide], for which the half-maximal inhibitory concentration (IC50) in assay [1] was 20 nM; in assay [2], 3.98 nM.

In the case of `O=C(O)c1ncncc1-c1cc(C(F)(F)F)cc2[nH]ncc12` [Example 192, 5-(6-(trifluoromethyl)-1H-indazol-4-yl)pyrimidine-4-carboxylic acid], the IC50 in assay [1] was 5010 nM; in assay [2] it was 100 nM.

As to `CNS(=O)(=O)c1cccc(-c2cc(C(F)(F)F)cc3[nH]ncc23)c1` [Example 104, N-methyl-3-(6-(trifluoromethyl)-1H-indazol-4-yl)benzenesulfonamide], the IC50 in assay [1] was 316 nM; in assay [2], 39.8 nM.

As to `OCCn1cc(-c2cc(C(F)(F)F)cc3[nH]ncc23)cn1` [Example 349, 2-(4-(6-(trifluoromethyl)-1H-indazol-4-yl)-1H-pyrazol-1-yl)ethanol], the IC50 in assay [1] was 100 nM; in assay [2] it was 6.31 nM.

Turning to `Oc1cccnc1-c1cc(C(F)(F)F)cc2[nH]ncc12` [Example 214, 2-(6-(trifluoromethyl)-1H-indazol-4-yl)pyridin-3-ol], the figures for the 50% inhibitory concentration (IC50) in assay [1] and in assay [2] were 501 nM and 15.8 nM, respectively.

Take `NC(=O)Cn1cc(-c2cc(C(F)(F)F)cc3[nH]ncc23)cn1` [Example 264, 2-(4-(6-(trifluoromethyl)-1H-indazol-4-yl)-1H-pyrazol-1-yl)acetamide]: the IC50 is 100 nM in assay [1] and 6.31 nM in assay [2].

For `Cn1cc(-c2cc(C(F)(F)F)cc3[nH]ncc23)c(N)n1` [Example 144, 1-methyl-4-(6-(trifluoromethyl)-1H-indazol-4-yl)-1H-pyrazol-3-amine], the IC50 in assay [1] is 200 nM; in assay [2], 20 nM.

On to `Cn1cc(C(=O)NCCO)cc(-c2cc(C(F)(F)F)cc3[nH]ncc23)c1=O` [Example 315, N-(2-hydroxyethyl)-1-methyl-6-oxo-5-(6-(trifluoromethyl)-1H-indazol-4-yl)-1,6-dihydropyridine-3-carboxamide], for which the IC50 was 316 nM in assay [1] and 10 nM in assay [2].
